Consider one substance from patent US20220152160A1, “DOSING REGIMEN” (Novo Nordisk A/S, priority 2013, published 2022).

The subject of data set [1] is insulin-naïve participants with T2DM. Kind of data set: Clinical Trial 1 (26-week, treat-to-target): glycaemic control (HbA1c, FPG), IDeg U-200 vs IGlar. Conditions: whole population. Format: in vivo, human. The source says:
(§1) This phase 3a, 26-week, randomized, controlled, open-label, multinational, treat-to-target, non-inferiority trial compared the efficacy and safety of IDeg U-200 (i.e. 200 U/mL) and IGlar (100 U/mL) both administered OD in combination with metformin (met) ±DPP-4 inhibitor in insulin-naïve participants with T2DM previously treated with oral antidiabetic drugs OAD(s), who qualified for intensification of treatment. The trial was open-label because the pen devices used to administer the basal insulins were distinctively different and blinding was, therefore, impossible.
Participants who were insulin-naïve adults with T2DM for at least 6 months, HbA1, 7-10% (inclusive), BMI s 45 kg/m^2, and previously treated with metformin with or without additional OADs for at least 3 months were eligible to participate in the study.
(§2) Using the interactive voice/web response system, eligible participants were randomized 1:1 to either once-daily IDeg U-200 (IDeg 200 U/mL, 3 mL FlexTouch®, Novo Nordisk, Bagsvård, Denmark) or once-daily IGlar (Lantus® 100 U/mL, 3 mL SoloStar® Sanofi Aventis U.S. LLC) and continued metformin ±DPP-4 inhibitor treatment. Trial participants were instructed to continue the same total daily dose of metformin and DPP-4 inhibitor treatment as before the start of the trial.
(§3) Insulin degludec was administered once-daily with the main evening meal and, consistent with its product labelling, IGlar was administered once-daily (OD) at the same time each day. Either treatment was injected subcutaneously in the thigh, upper arm or abdomen. The starting dose for each was 10 U, and during the treatment period, the insulin dose was systematically titrated using a treat-to-target approach striving for a pre-breakfast self-measured plasma glucose (SMPG) level of 4.0-4.9 mmol/L (71-89 mg/dL). Both IDeg and IGlar were similarly titrated once weekly in 2 U increments. The treatment period was 26 weeks and doses were individually titrated in an effort to achieve the same glucose targets with both treatments.
The primary endpoint for this study was change in HbA1c (%) from baseline after 26 weeks of treatment. Secondary confirmatory endpoints tested were number of treatment-emergent confirmed hypoglycaemic episodes, change from baseline in central laboratory-measured fasting plasma glucose (FPG), within subject variability as measured by coefficient of variation (%), and frequency of participants achieving HbA1c<7% without hypoglycaemic episodes. The supportive secondary endpoints included 9-point SMPG profiles, frequency of participants achieving HbA1c<7%, and Health-Related Quality of Life (HRQoL; Short Form 36 [SF-36 v.2] questionnaire) scores. The safety assessments were adverse events, hypoglycaemic episodes, insulin dose, body weight, physical examination, vital signs, fundoscopy, electrocardiogram (ECG) and laboratory tests (including antibodies). Confirmed hypoglycaemic episodes were defined as episodes with a PG value of <3.1 mmol/L (56 mg/dL) and severe episodes requiring assistance.^7 Hypoglycaemic episodes occurring between 00:01 h and 05:59 h (inclusive) were classified as nocturnal.
Analyses of all efficacy endpoints were based on the full analysis set (FAS) which included all randomized participants. The safety analysis set included all participants who received at least one dose of the investigational product or the comparator. Missing values were imputed using the last observation carried forward (LOCF) method.
The primary objective of this trial was to confirm the non-inferiority of IDeg U-200 OD to IGlar OD as assessed by change in HbA1c from baseline after 26 weeks of treatment. Non-inferiority was confirmed if the upper limit of the 95% confidence interval (Cl) for the treatment difference was 50.4%. […]

The test system is the same in data set [2]. Conditions: human, in vivo.
Source text: as §1, §2, §3
The primary endpoint for this study was change in HbA1c (%) from baseline after 26 weeks of treatment. Secondary confirmatory endpoints tested were number of treatment-emergent confirmed hypoglycaemic episodes, change from baseline in central laboratory-measured fasting plasma glucose (FPG), within subject variability as measured by coefficient of variation (%), and frequency of participants achieving HbA1c<7% without hypoglycaemic episodes. […]
Treatment difference in change from baseline in HbA1c after 26 weeks was analyzed using an Analysis of Variance (ANOVA) model with treatment, antidiabetic treatment at screening, sex and region (Europe, North America, or South Africa) as fixed factors, and age and baseline HbA1c as covariates. […] The number of treatment-emergent confirmed hypoglycaemic episodes was analyzed using a negative binomial regression model including treatment, antidiabetic therapy at screening, sex and region as fixed factors, and age as covariate. […]

For data set [3] the following is noted: in vivo; cited from earlier work.

For the substance “NεB29-(Nα—(HOOC(CH2)14CO)-γ-Glu)des(B30)-human insulin [insulin degludec]”, in data set [1] (26 weeks), the “non-inferiority to IGlar in change in HbA1c from baseline” value is “non-inferiority”. Besides, in data set [1] (26 weeks, 95% CI −0.11, 0.19), the “estimated treatment difference (ETD) IDeg-IGlar in change in HbA1c” value is on record as 0.04. Moreover, in data set [1] (26 weeks, 95% CI −0.78, −0.06), the “ETD in FPG (IDeg vs IGlar)” value is recorded as −0.42. Also, in data set [1] (after 26 weeks), the “Central laboratory-measured FPG decrease” value came out at 4.0 mmol/L, the “Central laboratory-measured FPG reached” value is listed as 5.7 mmol/L and the “FPG reduction compared with IGlar” value is on record as “statistically significantly greater FPG reduction”. Moreover, in data set [2], the “%: Percentage of subjects experiencing at least one episode” value is on record as 6.1%; the “ERR IDeg/IGlar, nocturnal confirmed hypoglycaemia” value was determined as 0.64; the “estimated rate ratio (ERR) IDeg/IGlar, confirmed hypoglycaemia” value is listed as 0.86; the “rate of nocturnal confirmed hypoglycaemic episodes” value was determined as 0.18 episodes/patient-year. The duration of action result in data set [3] is listed as “greater than 42 hours”.
